The results in this text go back to patent publication US20250382322A1, “DIAGNOSTICS FOR DETECTING ECTO-5'-NUCLEOTIDASE (CD73)” (EBERHARD KARLS UNIVERSITÄT TÜBINGEN, priority 2022, published 2025).

One assay has as its target T1, human P2Y1 receptor (Homo sapiens, UniProt P47900).
T1 construct: expressed in transfected cells; host or cells: 1321N1 astrocytoma cells (printed '1231N1 astrocytomna cells')
The experiment in a line: Calcium mobilization assay at P2Y1 receptor. In kind it is cell-based. The settings on record: 1231N1 astrocytoma cells. On the procedure: Interaction of 2 with the ADP-activated human P2Y1 receptor, which is Gq protein-coupled, was determined by calcium mobilization assays. The receptor was stably expressed in 1231N1 astrocytomna cells^25, 26 (for results see Table 2). Compound 20 was not tested at the P2Y1 receptor since the fluorescent compound would interfere with the calcium mobilization assay.
(A change in cytosolic calcium serves as a functional read-out for many receptors and channels.)

The target in assay [1] is T2, recombinant soluble rat CD73 (Rattus norvegicus, UniProt P21588).
T2 construct: glutathione-S-transferase fusion protein of soluble rat CD73; glutathione-S-transferase (GST); made in house; host or cells: Sf9 insect cells
T2 sequence (P21588 29-551 limits assumed): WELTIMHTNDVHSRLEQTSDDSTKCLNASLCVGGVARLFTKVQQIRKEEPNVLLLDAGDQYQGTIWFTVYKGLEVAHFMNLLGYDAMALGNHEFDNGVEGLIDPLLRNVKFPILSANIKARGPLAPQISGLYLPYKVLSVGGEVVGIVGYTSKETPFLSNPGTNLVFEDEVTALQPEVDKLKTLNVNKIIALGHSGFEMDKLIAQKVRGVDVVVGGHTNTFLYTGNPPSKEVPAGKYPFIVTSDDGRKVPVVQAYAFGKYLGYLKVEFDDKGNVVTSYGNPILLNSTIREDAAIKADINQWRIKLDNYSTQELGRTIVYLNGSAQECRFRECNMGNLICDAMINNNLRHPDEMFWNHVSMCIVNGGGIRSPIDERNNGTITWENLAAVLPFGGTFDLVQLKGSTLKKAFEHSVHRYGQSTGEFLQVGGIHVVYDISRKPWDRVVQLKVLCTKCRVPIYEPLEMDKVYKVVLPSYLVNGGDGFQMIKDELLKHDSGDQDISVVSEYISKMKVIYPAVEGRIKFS
The experiment in a line: CD73 enzyme inhibition assay with [2,8-3H]AMP, soluble rat CD73. It counts as biochemical. The settings on record: [2,8-3H]AMP (5 μM) as substrate; read-out: Rat soluble CD73 Ki ± SEM. On the procedure: Compound 2b, its precursor 1, and 20 were investigated for their CD73-inhibitory potency using tritium-labeled AMP as a substrate.^20 After incubation with CD73, non-hydrolyzed substrate and inorganic phosphate were precipitated using a solution of lanthanum chloride, and the precipitate was separated from the solution containing the reaction product [2,8-^3H]adenosine by filtration through GF/B glass fiber filters (WhatmanTM GE Healthcare, Chicago, IL, USA) using a cell harvester (M-48, Brandel, Gaitherburg, MD, USA). The filtrates (ca. 1.8 mL each) were transferred to scintillation vials, scintillation cocktail ULTIMA Gold XR (PerkinElmer, Waltham, MA, USA) was added (5 mL), and the radioactivity esd quantified by scintillation counting. CD73 preparations were (1) recombinant soluble human CD73,^13 (2) recombinant soluble rat CD73,^21 both expressed in Spodoptera frugiperda 9 (Sf) cells, (3) membrane preparations of MDA-MB-231 cells,^16 a human triple-negative breast cancer cell line with high expression of CD73,^18 and (4) membrane preparations of the 4T1.2 cell line, a mouse CD73-expressing breast cancer cell line.^22 The potency of the compounds was determined by measurements of full concentration-inhibition curves. K values were calcuated from the obtained IC50 values employing the Cheng-Prusoff equation.^23 […]

T1 sequence (P47900 whole entry): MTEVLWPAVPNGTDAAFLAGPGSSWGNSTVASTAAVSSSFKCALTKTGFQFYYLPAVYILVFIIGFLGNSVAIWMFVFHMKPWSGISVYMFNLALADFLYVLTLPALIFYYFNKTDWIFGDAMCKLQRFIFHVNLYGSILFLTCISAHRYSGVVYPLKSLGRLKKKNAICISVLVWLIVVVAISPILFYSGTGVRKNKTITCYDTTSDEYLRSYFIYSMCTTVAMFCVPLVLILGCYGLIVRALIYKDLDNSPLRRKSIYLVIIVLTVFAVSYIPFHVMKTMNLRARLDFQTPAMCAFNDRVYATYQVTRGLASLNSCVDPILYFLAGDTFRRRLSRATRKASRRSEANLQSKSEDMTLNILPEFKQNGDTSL

Consider `CCCN(Cc1ccc(-c2cn(CCF)nn2)cc1)c1nc(Cl)nc2c1ncn2[C@@H]1O[C@H](COP(=O)(O)CP(=O)(O)O)C(O)C1O` (stereo partly shown) [Compound 2], for which, at human P2Y1 receptor (2-methylthio-ADP as agonist at EC80 (3 μM), read-out: Inhibition P2Y1 receptor IC50), the IC50 (as a rule, the point on the concentration scale where inhibition reaches its midpoint) is greater than 10000 nM. Moreover, on human P2Y1 receptor (read-out: Activation P2Y1 receptor EC50), the EC50 (commonly the concentration needed to bring the measured effect to its halfway point) is greater than 10000 nM. In addition, the Ki (commonly the dissociation constant of the complex between target and ligand, obtained from inhibition or displacement) in assay [1] is 6.09 ± 0.74 nM.
Regarding `O=C(NCCCCCCNC(=O)c1ccc2c(c1)C1(OC2=O)c2ccc(O)cc2Oc2cc(O)ccc21)c1ccc(CNc2nc(Cl)nc3c2ncn3[C@@H]2O[C@H](COP(=O)(O)CP(=O)(O)O)[C@@H](O)[C@H]2O)cc1` [Compound 20, (((((2R,3S,4R,5R)-5-(2-chloro-6-((4-((6-(3′,6′-dihydroxy-3-oxo-3H-spiro[isobenzofuran-1,9′-xanthene]-6-carboxamido)-hexyl)carbamoyl)benzyl)amino)-9H-purin-9-yl)-3,4-dihydroxytetrahydrofuran-2-yl)methoxy)(hydroxy)phosphoryl)methyl)phosphonic acid], in assay [1], the Ki is 18 ± 1.43 nM.
